Test [1] concerns the target Somatostatin receptor. Kind of test: Inhibitory activity against Somatostatin receptor in rat cortex membrane using 125 I-Tyrs-octreotide as radioligand. Type of test: cell membranes.
In test [2] the target is Somatostatin receptor. Briefly: Radioligand binding studies on rat cortex membranes using 125 I-Tyrs-octreotide as ligand was determined.

Consider `NCCCCCOCC1OC(OCCc2c[nH]c3ccccc23)C(OCc2ccccc2)C1OCc1ccccc1` (configuration not stated), for which the “Log Ki” value on Somatostatin receptor [1] is -4.73. In addition, the IC50 at Somatostatin receptor [2] is 23 µM.
